The record followed here is PMC9421656, “Beyond Retigabine: Design, Synthesis, and Pharmacological Characterization of a Potent and Chemically Stable Neuronal Kv7 Channel Activator with Anticonvulsant Activity” (Journal of Medicinal Chemistry, 2022).

“And” between values parts separate entries of the source, which are not always exact repeats. Equal values may be shown once. “Also recorded” adds a separate entry of the source.

Data set [1] concerns the target T1, Kv7.2 W236L channels (Homo sapiens, UniProt O43526, W236L).
T1 construct: expressed in transfected cells; host or cells: CHO cells, transient transfection (pcDNA3.1)
In words: Whole-cell patch-clamp on homomeric Kv7.2 W236L mutant channels. As to conditions: 10 μM RET or 1 μM 60. The data set is classed as cell-based.

A short description of data set [2]: In vitro metabolism assay (S9 fraction of human liver microsomes). The data set is classed as in vitro ADME. The protocol:
To further explore the metabolic stability of compounds 25, 26, and 60 in a biologically relevant model, they were tested in an in vitro metabolism assay (S9 fraction of human liver microsomes) using retigabine as a comparator.[33],[34] In this assay, a very small extent (4.7 ± 0.5%) of retigabine undergoes phase I metabolism, whereas a larger fraction (17.4 ± 1.2%) was metabolized in phase II reactions, as previously reported.[35]

Data set [3] has as its system PTZ-induced seizures. In words: Pentylenetetrazol (PTZ)-induced acute seizures in mice. The note with it: for Seizure score (Lüttjohann's scale): 30 min before PTZ 100 mg/kg s.c.; for Latency to maximal seizures: 30 min before PTZ; for Survival rate in PTZ seizure model: end of 60 min observation; for Minimum effective dose: i.p., PTZ model. The data set is classed as in vivo, C57Bl/6 mice. The procedure:
A subcutaneous (s.c.) injection of 100 mg/kg PTZ in mice is able to trigger convulsive behavior whose intensity can be assessed and quantified according to the revised Lüttjohann’s scale (see Materials and Methods),[40] using a 9-point severity score ranging from 0 (whisker trembling) to 8 (wild jumping). For each animal, the maximal severity score (Figure 5A) and the time latency required to reach such values (Figure 5B) were recorded.
Food and water were available ad libitum. Animals were experimentally naive and were used only once.
Thus, each dose was dissolved to allow injection of 0.01 mL/g, i.p. The control group was represented by mice injected only with vehicle solution (saline containing 2% Tween-20 and 2% PEG-400).
PTZ was injected, and animals were placed in clear Plexiglass boxes for observation of seizure activity. The severity of convulsions (from minimal “clonic” to maximal “generalized tonic–clonic”) as well as the latency to onset of maximal seizure was recorded.
0 = whisker trembling, 1 = sudden behavioral arrest, 2 = facial jerking, 3 = neck jerks, 4 = clonic seizures (sitting), 5 = tonic clonic seizures (lying on belly), 6 = clonic seizures (lying on side), 7 = tonic clonic seizures (lying on side), 8 = wild jumping. The behavioral assessments described above were performed in a blind manner and the observers had to reach a unanimous agreement regarding the scoring of the behavior.
The number of animals needed for the experiment was determined using the power analysis software GPower version 3.1.92. The required minimum sample size was 8 mice per group. Statistical analyses were performed using GraphPad Prism (GraphPad Software, LaJolla, CA) using a one-way analysis of variance with the Tukey post-hoc test. The P value of <0.05 was accepted as indicative of a statistically significant difference.

Data set [4] in a line: Lipophilicity (log P).
Data set [5] has as its target Kv7.2/Kv7.3 channels (Homo sapiens, UniProt O43525+O43526). The experiment in a line: FluxOR thallium-sensitive fluorescence-based assay in CHO cells stably expressing Kv7.2 + Kv7.3. Format: cell-based. Also on record: expressed in transfected cells. As to conditions: for Slope of the fluorescent signal at 10 μM: initial slope of FluxOR signal between 5 and 15 s, mean ± SEM; for EC50: FluxOR dose-response, slope parameter, read-out: EC50 (initial slope of the fluorescence signal).

[6] abbreviates: S9 fraction of human liver microsomes.
Setting [7] is: 3 mg/kg i.p., listed as Retigabine.

On to `CCOC(=O)Nc1ccc(NCc2ccc(F)cc2)cc1N` [RET, retigabine], for which the “Kv7 opening ability in W236L channels” value in data set [1] is recorded as “almost fully abolished”. In addition, the “Phase I turnover metabolism” value in data set [2] (setting [6]) came out at 4.7 ± 0.5%. In data set [2] (setting [6]), the “Phase II turnover metabolism” value was determined as 17.4 ± 1.2%. Also, the “Seizure score (Lüttjohann's scale)” value in data set [3] (1 mg/kg i.p.) is on record as 6.9 ± 0.3; in data set [3] (3 mg/kg i.p.), 7.3±0.3 (at 3 mg/Kg); in data set [3] (setting [7]), 7.3 ± 0.3. Further, the “Latency to maximal seizures” value in data set [3] (3 mg/kg i.p.) is on record as 1041.4±223.2 (at 3 mg/Kg) s; in data set [3] (setting [7]) it was 1041.4 ± 223.2 s. Also, the “Survival rate in PTZ seizure model” value in data set [3] (3 mg/kg i.p.) was 40% (at 3 mg/Kg); in data set [3] (3 mg/kg i.p., listed as retigabine) it was 40%. Besides, the Minimum effective dose in data set [3] is on record as 3 mg/kg. Moreover, the “log P” value in data set [4] (method not stated) was 3.08. Besides, in data set [5] (10 μM), the “Slope of the fluorescent signal at 10 μM” value is reported as 0.0270±0.0052. Also, the EC50 in data set [5] was 11.2 ± 1.6 µM.
For `CC(C)(C)CC(=O)Nc1ccc(NCc2ccc(C(F)(F)F)cc2)c(F)c1N` [compound 60, N-(2-Amino-3-fluoro-4-((4-(trifluoromethyl)benzyl)amino)phenyl)-3,3-dimethylbutanamide], the “Kv7 opening ability in W236L channels” value in data set [1] is on record as “almost fully abolished”. For the same molecule, in data set [2] (human), the “Phase I turnover metabolism” value amounted to 8.2 ± 2.7% and the “Phase II turnover metabolism” value is reported as 15.6 ± 0.3%. The “Latency to maximal seizures” value in data set [3] (0.3 mg/kg i.p.) was 1159.7 ± 169.4 s and 1159.7±169.4 (at 0.3 mg/Kg) s. Moreover, the “Animals surviving in PTZ seizure model” value in data set [3] (1 mg/kg i.p., surviving/treated animals) was 8/8. Besides, in data set [3] (compound 60 with XE991 3 mg/kg i.p. pretreatment), the “Survival rate in PTZ seizure model after XE991 pretreatment” value is on record as 75%. Besides, in data set [3], the Minimum effective dose is given as 0.3 mg/kg. This molecule came in with a lipophilicity (logP) in data set [4] of 4.74. For the same molecule, the “Kv7 opening activity (in words)” value in data set [5] (10 μM, compared with retigabine or the reference compound of the subseries) was “enhanced; also recorded: higher than that of retigabine”. Further, the “Slope of the fluorescent signal at 10 μM” value in data set [5] (10 μM) is on record as 0.0594±0.0026. For the same molecule, the concentration giving a half-maximal response (EC50) in data set [5] turned out to be 3.2 ± 1.7 µM.
